Test results from PMC4901301 (Scientific Reports, 2016).
In brackets after ≈: the same amount, converted by molar mass. Read-outs that look alike come from different tables or passages of the source.

Columns and labels:
Mtb gyrase = Mtb gyrase (Mycobacterium tuberculosis, UniProt P9WG45); test: Mtb gyrase supercoiling assay; type: biochemical
Method: Mtb gyrase supercoiling assays were carried out as described previously.

Mtb ThyX = Mtb ThyX (Mycobacterium tuberculosis, UniProt P9WG57); test: Mtb ThyX tritium release assay; type: biochemical; settings: for % of ThyX inhibition at 100 µM: actual measured data; for Ki: read-out: Ki against Mtb ThyX
Mtb TH 12526 = test: Resazurin (Alamar Blue) drug susceptibility testing, TH 12526; type: cell-based, Mycobacterium tuberculosis
Mtb H37Rv [1] = test: Resazurin (Alamar Blue) drug susceptibility testing, H37Rv; type: cell-based, Mycobacterium tuberculosis
Mtb H37Rv [2] = test: Broth microdilution susceptibility of Mtb H37Rv; type: cell-based, Mycobacterium tuberculosis; settings: replicating Mtb H37Rv, read-out: MIC90 (µM) against H37Rv
Mtb = tested on: Mtb; parameters: method as in earlier work; settings: cited from earlier work
[3] = menadione analogs, 7H9 media with 1% ethanol as a co-solvent, read-out: MIC (H37Rv)

Chain of Mtb ThyX (P9WG57 whole entry): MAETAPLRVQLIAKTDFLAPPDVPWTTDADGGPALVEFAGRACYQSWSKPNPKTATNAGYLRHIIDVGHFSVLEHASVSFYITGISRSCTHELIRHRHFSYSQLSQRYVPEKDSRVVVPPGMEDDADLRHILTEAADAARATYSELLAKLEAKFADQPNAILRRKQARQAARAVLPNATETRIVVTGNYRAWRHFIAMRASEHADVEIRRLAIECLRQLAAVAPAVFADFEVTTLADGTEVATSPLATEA
Chain of Mtb gyrase (P9WG47 whole entry): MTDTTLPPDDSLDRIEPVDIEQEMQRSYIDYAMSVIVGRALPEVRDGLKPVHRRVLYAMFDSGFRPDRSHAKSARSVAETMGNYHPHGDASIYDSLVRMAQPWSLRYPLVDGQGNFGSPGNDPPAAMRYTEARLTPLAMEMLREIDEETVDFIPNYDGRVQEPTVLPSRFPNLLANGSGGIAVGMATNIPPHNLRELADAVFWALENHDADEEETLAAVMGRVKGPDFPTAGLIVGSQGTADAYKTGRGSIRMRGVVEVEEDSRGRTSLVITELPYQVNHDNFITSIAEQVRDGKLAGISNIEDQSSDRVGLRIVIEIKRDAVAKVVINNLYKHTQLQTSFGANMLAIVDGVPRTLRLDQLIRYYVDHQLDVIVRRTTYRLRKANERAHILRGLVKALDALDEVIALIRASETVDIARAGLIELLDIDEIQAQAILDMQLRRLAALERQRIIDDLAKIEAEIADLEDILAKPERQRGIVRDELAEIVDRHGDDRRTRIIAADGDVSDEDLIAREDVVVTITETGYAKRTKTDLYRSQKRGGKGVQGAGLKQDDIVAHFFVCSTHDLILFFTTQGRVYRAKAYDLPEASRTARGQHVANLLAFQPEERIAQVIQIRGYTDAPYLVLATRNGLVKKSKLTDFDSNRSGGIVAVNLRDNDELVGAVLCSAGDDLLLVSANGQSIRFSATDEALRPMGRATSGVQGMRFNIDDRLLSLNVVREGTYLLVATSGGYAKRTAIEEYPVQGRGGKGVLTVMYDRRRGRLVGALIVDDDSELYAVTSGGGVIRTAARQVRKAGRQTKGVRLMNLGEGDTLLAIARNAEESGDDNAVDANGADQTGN
Chain of Mtb gyrase (P9WG45 whole entry): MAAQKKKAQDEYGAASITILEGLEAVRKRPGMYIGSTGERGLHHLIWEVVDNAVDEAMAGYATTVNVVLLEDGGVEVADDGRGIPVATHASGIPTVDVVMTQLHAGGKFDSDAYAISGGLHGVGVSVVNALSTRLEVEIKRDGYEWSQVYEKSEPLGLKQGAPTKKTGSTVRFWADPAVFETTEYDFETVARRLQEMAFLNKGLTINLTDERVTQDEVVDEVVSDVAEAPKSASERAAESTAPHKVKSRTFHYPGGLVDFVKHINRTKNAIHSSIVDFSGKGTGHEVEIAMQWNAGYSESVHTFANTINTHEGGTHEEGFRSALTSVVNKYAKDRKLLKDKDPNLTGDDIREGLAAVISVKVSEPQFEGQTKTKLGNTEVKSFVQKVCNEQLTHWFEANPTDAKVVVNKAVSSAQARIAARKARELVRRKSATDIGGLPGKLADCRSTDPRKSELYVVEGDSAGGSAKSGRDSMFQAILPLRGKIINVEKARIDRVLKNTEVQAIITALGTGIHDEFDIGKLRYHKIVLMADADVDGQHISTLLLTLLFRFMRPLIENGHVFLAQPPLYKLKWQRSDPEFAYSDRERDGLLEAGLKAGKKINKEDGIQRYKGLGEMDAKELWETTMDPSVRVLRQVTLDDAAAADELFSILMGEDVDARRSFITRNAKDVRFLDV

Compound: CCOCCOC(=O)COc1ccc2c(-c3ccccc3)cc(=O)oc2c1 [2-ethoxyethyl [(2-oxo-4-phenyl-2H-chromen-7-yl)oxy]acetate]
- Activity against gyrase at 100 uM (Mtb gyrase): no activity

Compound: Cc1cc(O)c2c(c1)C(=O)C=CC2=O [7-methyljuglone, reference compound]
- Activity against Mtb gyrase (in words) (Mtb gyrase): active
- IC50 (Mtb gyrase): 30 µM
- Activity against Mtb ThyX (in words) (Mtb ThyX): active
- IC50 (Mtb ThyX): 35 µM

Compound: O=C1C(Br)=CC(=O)c2c(O)cccc21 [Compound 2E04]
- Activity against Mtb gyrase (in words) (Mtb gyrase): inactive
- IC50 (Mtb gyrase): > 50 µM
- Activity against Mtb ThyX (in words) (Mtb ThyX): inhibit
- IC50 (Mtb ThyX): 5 µM

Compound: O=C1C(O)=C(Cc2ccc(-c3ccc(Cl)cc3)cc2)C(=O)c2ccccc21 [Compound 007B]
- MIC (Mtb TH 12526; TH 12526, read-out: MIC): 41.7 µM (≈ 15.6 µg/mL)
- MIC (Mtb H37Rv [1]; H37Rv, read-out: MIC): 20.8 µM (≈ 7.8 µg/mL)
- % of ThyX inhibition at 100 µM (Mtb ThyX): 21%

Compound: O=C1C(O)=C(Cc2ccc(OC(F)(F)F)cc2)C(=O)c2ccccc21 [Compound 007C]
- MIC (Mtb TH 12526; TH 12526, read-out: MIC): 44.9 µM (≈ 15.6 µg/mL)
- MIC (Mtb H37Rv [1]; H37Rv, read-out: MIC): 89.7 µM (≈ 31.2 µg/mL)
- % of ThyX inhibition at 100 µM (Mtb ThyX): 78%

Compound: CC(C)Oc1ccc(CC2=C(O)C(=O)c3ccccc3C2=O)cc1 [Compound 007D]
- MIC (Mtb TH 12526; TH 12526, read-out: MIC): 96.9 µM (≈ 31.2 µg/mL)
- MIC (Mtb H37Rv [1]; read-out: MIC): 96.9 µM (≈ 31.2 µg/mL)
- % of ThyX inhibition at 100 µM (Mtb ThyX): 71%

Compound: O=C1C(O)=C(Cc2ccc(C(F)(F)F)cc2)C(=O)c2ccccc21 [Compound 007F]
- MIC (Mtb TH 12526; TH 12526, read-out: MIC): 47.0 µM (≈ 15.6 µg/mL)
- MIC (Mtb H37Rv [1]; read-out: MIC): 94.1 µM (≈ 31.3 µg/mL)
- % of ThyX inhibition at 100 µM (Mtb ThyX): 74%

Compound: O=C1C(O)=C(Cc2ccc(Oc3ccccc3)cc2)C(=O)c2ccccc21 [Compound 007G]
- MIC (Mtb TH 12526; TH 12526, read-out: MIC): 87.8 µM (≈ 31.3 µg/mL)
- MIC (Mtb H37Rv [1]; read-out: MIC): 175.5 µM (≈ 62.5 µg/mL)
- % of ThyX inhibition at 100 µM (Mtb ThyX): 89%

Compound: O=C1C(O)=C(Cc2ccc(Cl)cc2)C(=O)c2ccccc21 [Compound 010A]
- MIC (Mtb TH 12526; TH 12526, read-out: MIC): 52.3 µM (≈ 15.6 µg/mL)
- MIC (Mtb H37Rv [1]; read-out: MIC): 52.3 µM (≈ 15.6 µg/mL)
- % of ThyX inhibition at 100 µM (Mtb ThyX): 64%

Compound: O=C1C(O)=C(Cc2cc(F)cc(F)c2)C(=O)c2ccccc21 [Compound 010B]
- MIC (Mtb TH 12526; TH 12526, read-out: MIC): 104.1 µM (≈ 31.3 µg/mL)
- MIC (Mtb H37Rv [1]; read-out: MIC): 104.1 µM (≈ 31.3 µg/mL)
- % of ThyX inhibition at 100 µM (Mtb ThyX): 68%

Compound: O=C1C(O)=C(Cc2ccco2)C(=O)c2ccccc21 [Compound 010C]
- MIC (Mtb TH 12526; TH 12526, read-out: MIC): 176.5 µM (≈ 44.9 µg/mL)
- MIC (Mtb H37Rv [1]; read-out: MIC): 176.5 µM (≈ 44.9 µg/mL)
- % of ThyX inhibition at 100 µM (Mtb ThyX): 60%

Compound: O=C1C(O)=C(Cc2cccs2)C(=O)c2ccccc21 [Compound 010D]
- MIC (Mtb TH 12526; TH 12526, read-out: MIC): 231.2 µM (≈ 62.5 µg/mL)
- MIC (Mtb H37Rv [1]; read-out: MIC): 231.2 µM (≈ 62.5 µg/mL)
- % of ThyX inhibition at 100 µM (Mtb ThyX): 42%

Compound: O=C1C(O)=C(Cc2ccc(F)c(C(F)(F)F)c2)C(=O)c2ccccc21 [Compound 010E]
- MIC (Mtb TH 12526; TH 12526, read-out: MIC): 22.3 µM (≈ 7.81 µg/mL)
- MIC (Mtb H37Rv [1]; read-out: MIC): 22.3 µM (≈ 7.81 µg/mL)
- % of ThyX inhibition at 100 µM (Mtb ThyX): 32%

Compound: O=C1C(O)=C(Cc2ccc(F)c(Cl)c2)C(=O)c2ccccc21 [Compound 010F]
- MIC (Mtb TH 12526; TH 12526, read-out: MIC): 98.7 µM (≈ 31.3 µg/mL)
- MIC (Mtb H37Rv [1]; read-out: MIC): 197.3 µM (≈ 62.5 µg/mL)
- % of ThyX inhibition at 100 µM (Mtb ThyX): 73%

Compound: COc1cc(CC2=C(O)C(=O)c3ccccc3C2=O)ccc1O [Compound 010H]
- MIC (Mtb TH 12526; TH 12526, read-out: MIC): 201.4 µM (≈ 62.5 µg/mL)
- MIC (Mtb H37Rv [1]; read-out: MIC): 201.4 µM (≈ 62.5 µg/mL)
- % of ThyX inhibition at 100 µM (Mtb ThyX): 41%

Compound: CCCCC1=C(O)C(=O)c2ccccc2C1=O [Compound 010I]
- MIC (Mtb TH 12526; TH 12526, read-out: MIC): 67.8 µM (≈ 15.6 µg/mL)
- MIC (Mtb H37Rv [1]; read-out: MIC): 135.7 µM (≈ 31.2 µg/mL)
- % of ThyX inhibition at 100 µM (Mtb ThyX): 58%

Compound: COc1ccc(CC2=C(O)C(=O)c3ccccc3C2=O)cc1OC [Compound 010K]
- MIC (Mtb TH 12526; TH 12526, read-out: MIC): 48.2 µM (≈ 15.6 µg/mL)
- MIC (Mtb H37Rv [1]; read-out: MIC): 192.7 µM (≈ 62.5 µg/mL)
- % of ThyX inhibition at 100 µM (Mtb ThyX): 42%

Compound: CCOC(=O)C1=C(c2ccc(C)cc2)C(=O)c2ccccc2C1=O [Compound B6, ethyl 3-(4-methylphenyl)-1,4-dioxonaphtalene-2-carboxylate]
- MIC90 (Mtb H37Rv [2]; Mycobacterium tuberculosis): 62.5 µM (≈ 20 µg/mL)
- Ki (Mtb ThyX; from dose response curves versus ThyX): 4.5 µM

Compound: COc1ccc(CC2=C(O)C(=O)c3ccccc3C2=O)cc1 [Compound C8-C1]
- Activity against Mtb gyrase (in words) (Mtb gyrase): inactive
- IC50 gyrase (Mtb gyrase): No inhibition
- Activity against Mtb ThyX (in words) (Mtb ThyX): inhibit
- IC50 (Mtb ThyX): 4.5 µM

Compound: O=C1C=C(Cc2ccc(F)cc2)C(=O)c2ccccc21 [Compound D4]
- MIC90 (Mtb H37Rv [2]): 31.2 µM (≈ 8.31 µg/mL)

Compound: COc1ccc(CC2=CC(=O)c3ccccc3C2=O)cc1 [Compound D5]
- MIC90 (Mtb H37Rv [2]): 62.5 µM (≈ 17.4 µg/mL)

Compound: CS(=O)(=O)N1CCN(C2=C(Cl)C(=O)c3ccccc3C2=O)CC1 [Compound E1, 2-chloro-3-(4-methanesulfonylpiperazin-1-yl)-1,4-dihydronaphthalene-1,4-dione]
- MIC90 (Mtb H37Rv [2]; Mycobacterium tuberculosis): 62.5 µM (≈ 22.2 µg/mL)

Compound: CC(=O)N(C1=C(Cl)C(=O)c2ccccc2C1=O)c1cccc(F)c1 [Compound E10]
- MIC90 (Mtb H37Rv [2]): 31.2 µM (≈ 10.7 µg/mL)

Compound: O=C1C(Cl)=C(N2CCN(C(=O)c3ccc(F)cc3)CC2)C(=O)c2ccccc21 [Compound F1]
- MIC90 (Mtb H37Rv [2]): 31.2 µM (≈ 12.4 µg/mL)

Compound: CCS(=O)(=O)N1CCN(C2=C(Cl)C(=O)c3ccccc3C2=O)CC1 [Compound F2]
- MIC90 (Mtb H37Rv [2]): 31.2 µM (≈ 11.5 µg/mL)

Compound: Cc1cc(O)c2c(c1)C(=O)C(c1c(C)cc3c(c1O)C(=O)C=CC3=O)=CC2=O [Diospyrin, reference compound]
- Activity against Mtb gyrase (in words) (Mtb gyrase): inhibits
- IC50 (Mtb gyrase): 15 µM
- IC50 ThyX (Mtb ThyX): No inhibition

Compound: NNC(=O)c1ccncc1 [INH, isoniazid, reference compound]
- MIC (Mtb TH 12526; Mycobacterium tuberculosis, TH12526, TH 12526, read-out: MIC): < 0.91 µM
- MIC (Mtb H37Rv [1]; Mycobacterium tuberculosis, H37RV, read-out: MIC): < 0.91 µM
- MIC (Mtb): 0.25 mg/L (≈ 1.82 µM)

Compound: COC1=C(OC)C(=O)C(CCCCCCCCCCO)=C(C)C1=O [Idebenone, idebenone, reference compound]
- MIC90 (Mtb H37Rv [2]; Mycobacterium tuberculosis): 125 µM (≈ 42.3 µg/mL)
- MIC90 (Mtb H37Rv [2]): 125 µM (≈ 42.3 µg/mL)
- Ki (Mtb ThyX; uncompetitive with respect to dUMP, converted from measured IC50): 3.3 µM
- Mode of inhibition of Mtb ThyX (Mtb ThyX; with respect to dUMP): uncompetitive

Compound: Cc1cc2c(c(O)c1-c1c(C)cc(O)c3c1C(=O)C=CC3=O)C(=O)C=CC2=O [Isodiospyrin, reference compound]
- IC50 (Mtb gyrase): 100 µM

Compound: CC(C)=CCC/C(C)=C/CC/C(C)=C/CC/C(C)=C/CC/C(C)=C/CC/C(C)=C/CC/C(C)=C/CC/C(C)=C/CC/C(C)=C/CC1=C(C)C(=O)c2ccccc2C1=O [MK-9, reference compound]
- MIC (Mtb H37Rv [1]; [3]): > 6.4 µM

Compound: CC1(S(=O)(=O)[O-])CC(=O)c2ccccc2C1=O.[Na+] (stereo not shown) [Menadione Bisulfate, reference compound]
- MIC (Mtb H37Rv [1]; [3]): 311.3 µM

Compound: CC1=CC(=O)c2ccccc2C1=O [Menadione, reference compound]
- Activity against Mtb gyrase (in words) (Mtb gyrase): inactive
- MIC (Mtb H37Rv [1]; Mycobacterium tuberculosis, H37RV, menadione analogs, 7H9 media with 1% ethanol as a co-solvent, read-out: MIC (H37Rv)): 98.8 µM (≈ 17 µg/mL)

Compound: Cc1cc(O)c2c(c1)C(=O)C=C(c1c(C)cc(O)c3c1C(=O)C=CC3=O)C2=O [Neodiospyrin, reference compound]
- IC50 (Mtb gyrase): 50 µM
- IC50 (Mtb ThyX): 20 µM

Compound: CO[C@H]1/C=C/O[C@@]2(C)Oc3c(C)c(O)c4c(O)c(c(/C=N/N5CCN(C)CC5)c(O)c4c3C2=O)NC(=O)/C(C)=C\C=C\[C@H](C)[C@H](O)[C@@H](C)[C@@H](O)[C@@H](C)[C@H](OC(C)=O)[C@@H]1C [RMP, rifampicin, reference compound]
- MIC (Mtb TH 12526; Mycobacterium tuberculosis, TH12526): < 0.3 µM
- MIC (Mtb): 0.5 mg/L (≈ 0.608 µM)

Compound: CCCCc1cc(=O)oc2cc(OCC(=O)OCc3ccccc3)c(Cl)cc12 [benzyl [(4-butyl-6-chloro-2-oxo-2H-chromen-7-yl)oxy]acetate]
- Activity against gyrase at 100 uM (Mtb gyrase): no activity

Compound: CCOC(=O)COc1cc2oc(=O)cc(CC)c2cc1Cl [ethyl [(6-chloro-4-ethyl-2-oxo-2H-chromen-7-yl)oxy]acetate]
- Activity against gyrase at 100 uM (Mtb gyrase): no activity

Compound: COC(=O)COc1cc2oc(=O)cc(-c3ccccc3)c2cc1Cl [methyl [(6-chloro-2-oxo-4-phenyl-2H-chromen-7-yl)oxy]acetate]
- Activity against gyrase at 100 uM (Mtb gyrase): no activity

Compound: CCCc1cc(=O)oc2cc(OCC(=O)OC)c(Cl)cc12 [methyl [(6-chloro-2-oxo-4-propyl-2H-chromen-7-yl)oxy]acetate]
- Activity against gyrase at 100 uM (Mtb gyrase): no activity

Compound: CCc1cc2c(=O)c(-c3ccc(OC)cc3)coc2cc1OCC(=O)OC [methyl {[6-ethyl-3-(4-methoxyphenyl)-4-oxo-4H-chromen-7-yl]oxy}acetate]
- Activity against gyrase at 100 uM (Mtb gyrase): no activity

Compound: C=CCOC(=O)COc1cc2oc(=O)c(Cc3ccccc3)c(C)c2cc1Cl [prop-2-en-1-yl 2-[(3-benzyl-6-chloro-4-methyl-2-oxo-2H-chromen-7-yl)oxy]acetate]
- Activity against gyrase at 100 uM (Mtb gyrase): no activity
